Source: PMC4591937 (Science translational medicine, 2015)
≈ marks a conversion by molar mass, not a printed value.

Legend:
lipid peroxidation [1] = experiment: Inhibition of lipid peroxidation, ferric thiocyanate; format: biochemical; details: average ± SEM, n = 3
lipid peroxidation [2] = experiment: Inhibition of lipid peroxidation, thiobarbituric acid reactive substances; format: biochemical; details: average ± SEM, n = 3
[3] = Binding to human plasma proteins by rapid equilibrium dialysis; format: in vitro ADME
[4] = tested on: ERE-luciferase reporter under transcriptional control of ERs; experiment: Bioluminescence imaging in OVX repTOP ERE-Luc mice; format: in vivo, mouse; details: DHED s.c. or p.o. ≥200 μg/kg; E2 s.c. 20 μg/kg
uterus of OVX rodents = format: in vivo; details: for Vaginal smear cytology during and after treatment: OVX rats
ERα in MCF-7Ca cells = experiment: ERα transactivation in MCF-7Ca breast cancer cells; format: cell-based, human; details: cultured MCF-7Ca cells, 1 nM
ERα = molecular target: T1, ERα (Homo sapiens, UniProt P03372); experiment: Estrogen receptor; format: binding
T1 sequence (P03372 1-595): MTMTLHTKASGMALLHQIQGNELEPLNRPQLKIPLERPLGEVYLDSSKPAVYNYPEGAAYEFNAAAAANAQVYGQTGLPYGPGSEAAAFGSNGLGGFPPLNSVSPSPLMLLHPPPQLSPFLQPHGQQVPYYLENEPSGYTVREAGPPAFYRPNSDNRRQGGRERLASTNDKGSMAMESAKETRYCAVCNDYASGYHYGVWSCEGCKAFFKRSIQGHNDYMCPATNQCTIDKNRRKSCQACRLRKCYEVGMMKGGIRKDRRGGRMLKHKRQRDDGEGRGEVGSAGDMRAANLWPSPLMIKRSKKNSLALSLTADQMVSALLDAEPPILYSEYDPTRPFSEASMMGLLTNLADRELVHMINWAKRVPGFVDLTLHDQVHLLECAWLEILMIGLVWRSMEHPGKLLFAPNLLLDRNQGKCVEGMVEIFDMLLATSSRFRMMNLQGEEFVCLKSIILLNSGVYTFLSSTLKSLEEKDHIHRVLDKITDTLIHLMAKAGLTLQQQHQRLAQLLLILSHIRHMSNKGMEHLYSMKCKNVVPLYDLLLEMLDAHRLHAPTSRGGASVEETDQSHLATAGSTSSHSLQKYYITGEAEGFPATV

ERβ = ERβ (Homo sapiens, UniProt Q92731); experiment: Estrogen receptor; format: binding
Sequence of ERβ (Q92731 whole entry, species assumed): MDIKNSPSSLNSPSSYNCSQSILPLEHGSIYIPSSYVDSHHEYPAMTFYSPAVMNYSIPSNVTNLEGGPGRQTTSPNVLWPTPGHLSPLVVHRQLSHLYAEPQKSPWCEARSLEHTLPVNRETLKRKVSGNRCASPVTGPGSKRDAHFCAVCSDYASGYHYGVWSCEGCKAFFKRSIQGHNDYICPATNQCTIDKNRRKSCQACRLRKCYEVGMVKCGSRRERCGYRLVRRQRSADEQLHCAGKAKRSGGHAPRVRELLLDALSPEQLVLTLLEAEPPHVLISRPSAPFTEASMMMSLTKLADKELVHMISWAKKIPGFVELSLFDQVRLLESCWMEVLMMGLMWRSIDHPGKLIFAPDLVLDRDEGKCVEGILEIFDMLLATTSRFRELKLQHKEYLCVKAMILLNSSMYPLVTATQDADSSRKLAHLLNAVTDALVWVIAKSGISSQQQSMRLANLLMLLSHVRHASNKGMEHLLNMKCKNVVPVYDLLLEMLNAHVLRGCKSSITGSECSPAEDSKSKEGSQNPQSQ

[5] = Drug distribution / pharmacokinetics in OVX rats; format: in vivo, rat
OVX Sprague-Dawley rats = experiment: Transient middle cerebral artery occlusion; format: in vivo, rat
CD1 mice = experiment: Forced swim test; format: in vivo, mouse
OVX rat = OVX rat hot flush model; format: in vivo; details: p.o. 30 μg/kg
[6] = tested on: middle-aged OVX Fisher-344 rats; experiment: Delay match-to-sample plus maze test; format: in vivo, rat; details: continuous s.c. minipump 4 μg daily, 48 days, versus control
OVX rat brain = experiment: Markers of estrogenic effects in the brain; format: in vivo; details: for Progesterone receptor (PR) expression in the preoptic area of the hypothalamus: OVX Sprague-Dawley rats, DHED s.c. 50 μg/kg, ICI 182,780 s.c. 1 mg/kg 1 h before DHED
human MCF7-Ca xenografts = experiment: MCF-7Ca xenograft growth in nude mice; format: in vivo, mouse; details: 100 μg/kg s.c. daily for 8 weeks
[7] = 0.8 to 100 μg/kg s.c. 1 h before tMCAO

C[C@]12CC[C@@H]3c4ccc(O)cc4CC[C@H]3[C@@H]1CC[C@@H]2O [Compound E2, 17β-estradiol, reference compound]
IC50 (lipid peroxidation [1]; read-out: Inhibition of lipid peroxidation: IC50, FTC): 11.8 ± 1.6 µM
IC50 (lipid peroxidation [2]; read-out: Inhibition of lipid peroxidation: IC50, TBARS): 3.9 ± 0.4 µM
Binding to human plasma proteins ([3]; average ± SEM, n = 3): 97.8 ± 0.3%
ERE reporter activation / bioluminescence in peripheral tissues [4]: significant increase of photon emission from the hepatic area
Vaginal smear cytology during and after treatment (uterus of OVX rodents): vaginal smears with many cornified cells
ERα transactivation (ERα in MCF-7Ca cells): induced the expected cancer-promoting ERα transactivation

C[C@]12CCC(=O)C=C1CC[C@@H]1[C@@H]2CC[C@]2(C)C(=O)CC[C@@H]12 [Δ^4A, Δ^4-androstenedione]
ERα transactivation (ERα in MCF-7Ca cells): induced the expected cancer-promoting ERα transactivation

C[C@]12CC[C@H]3[C@@H](CCC4=CC(=O)C=C[C@@]43O)[C@@H]1CC[C@@H]2O [DHED, 10β,17β-dihydroxyestra-1,4-dien-3-one]
IC50 (ERα): > 10 µM
IC50 (ERβ): > 10 µM
Inhibition of lipid peroxidation: IC50, FTC (lipid peroxidation [1]): n.i.
Inhibition of lipid peroxidation: IC50, TBARS (lipid peroxidation [2]): n.i.
Binding to human plasma proteins ([3]; human): 58.0 ± 0.6%
Prodrug level in the brain ([5]; OVX rats after systemic dosing): did not detect DHED in the brain
Oral absorption ([5]; PK studies of E2 in brain and serum, p.o. (table S1)): complete absorption after oral administration
half-life ([5]; female, Sprague-Dawley, rat, serum, iv, 200 ug/kg): 5.1 ± 0.6 min
ERE reporter activation / bioluminescence in peripheral tissues [4]: did not activate the ERE reporter construct
Neuroprotection with post-infarct treatment (OVX Sprague-Dawley rats; 100 μg/kg s.c. after tMCAO): had a neuroprotective effect
Infarct volume (OVX Sprague-Dawley rats; [7]): dose-dependent reduction of the infarct volumes
Neurological deficits (ND score) (OVX Sprague-Dawley rats; [7]): attenuation of neurological deficits
Antidepressant-like activity in the FST (CD1 mice; 10 μg/kg s.c. daily for 5 days, 1 h after last injection): outperformed direct administration of E2
Tail-skin temperature rise (OVX rat): blunted the tail-skin temperature rise
Working memory errors [6]: significantly decreased working memory errors
ChAT-IR stereological cell counts in medial septum and vertical diagonal band (OVX rat brain; OVX Fischer 344 rats, 4 μg/day s.c. pumps, 48 days): increased choline acetyltransferase immunoreactive (ChAT-IR) stereological cell counts
Dendritic spines and spine heads in hippocampal CA1 neurons (OVX rat brain; OVX Fischer 344 rats, 10 μg s.c. every four days for 40 days): increased the number of dendritic spines and spine heads
Progesterone receptor (PR) expression in the preoptic area of the hypothalamus (OVX rat brain): stimulated progesterone receptor (PR) expression
Expression of estrogen-regulated uterine proteins (uterus of OVX rodents; OVX Swiss-Webster mice, 50 μg/kg s.c. daily for 5 days, versus control): no changes in the expression
Vaginal smear cytology during and after treatment (uterus of OVX rodents): remained continuously in diestrus
Wet uterus weight gain (uterotrophic effect) (uterus of OVX rodents; OVX rodents, i.v., s.c., p.o. or 48-day s.c. minipump): did not result in wet uterus weight gain
Growth of aromatase-transfected MCF-7Ca xenografts (human MCF7-Ca xenografts): did not stimulate the growth
solubility (physchem): 60.3 ± 1.7 µg/mL (≈ 209 µM)

16,16,17-d3-DHED
Site of labelled E2 formation from deuterated prodrug ([5]; OVX Sprague-Dawley rats, i.v., tissue 15 min post-dosing): d3-E2 was produced exclusively in the brain

C[C@]12CC[C@@H]3c4ccc(O)cc4C[C@@H](CCCCCCCCC[S+]([O-])CCCC(F)(F)C(F)(F)F)[C@H]3[C@@H]1CC[C@@H]2O (stereo partly shown) [ICI 182,780]
Effect of ER antagonist on antidepressant-like effect of E2 and DHED (CD1 mice; 4 mg/kg s.c. co-injected with E2 or DHED 50 μg/kg s.c., 5 days): completely blocked this antidepressant-like effect
Brain concentration by LC-MS/MS (CD1 mice; 15 min after completion of the FST, systemic dosing): 6.6 ±0.9 ng/g tissue
Progesterone receptor (PR) expression in the preoptic area of the hypothalamus (OVX rat brain): abolished the effect of DHED treatment on PR induction
